Structures can show the parent of a compound that is named as a salt.
Test system: p62-dependent mitophagy
Test: Luciferase-p62 assay (Fluc-p62 clearance) in mouse embryonic fibroblasts
Format: cell-based
Details: for Mean Luminescence: Luciferase-p62 assay, mouse embryonic fibroblasts (MEFs), compounds at 10 μM; for % Activity over baseline: percentage of Luciferase-p62 clearance relative to baseline (mean luminescence in the absence of doxycycline induction); for % Activity over baseline / % Activity relative to Rapamycin: MEFs, 10 μM; for % Activity relative to Rapamycin: percentage of activity relative to rapamycin tested in the same experiment at the same concentration
Summary of the method: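 MEFs with doxycycline-inducible Fluc-p62; after induction, doxycycline removed and cells treated 48 h with compounds at 10 μM. Fluc-p62 clearance, taken as mitophagy, read by ONE-Glo+Tox luciferase with viability. Vehicle (DMSO) as negative control; activity also expressed relative to rapamycin.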

Structure (SMILES)	Mean Luminescence	% Activity over baseline	% Activity relative to Rapamycin
Nc1nc2c(ncn2[C@@H]2O[C@H](COP(=O)([O-])[O-])[C@@H](O)[C@H]2O)c(=O)[nH]1.[Na+].[Na+] [Guanosine 5′-monophosphate (sodium salt)]	977.65	39.58%	71.31%
COc1cc(CC(=O)O)ccc1O [Homovanillic acid]	908.95	43.83%	78.96%
C[C@]12CCC(=O)C=C1CC[C@@H]1[C@@H]2[C@@H](O)C[C@@]2(C)[C@H]1CC[C@]2(O)C(=O)CO [Hydrocortisone]	801.04	50.50%	90.98%
CC[C@H]1CN2CC[C@H]1C[C@@H]2[C@@H](O)c1ccnc2ccc(OC)cc12 [Hydroquinidine]	958.47	40.77%	73.45%
OCCc1ccc(O)c(O)c1 [Hydroxytyrosol]	839.13	48.14%	86.74%
CC1=C[C@]23C(=O)[C@@H](C=C(CO)[C@@H](O)[C@]2(O)[C@H]1O)[C@H]1[C@@H](C[C@H]3C)C1(C)C [Ingenol]	930.73	42.48%	76.54%
CC(C)CC(=O)NCC(=O)O [Isovaleroylglycine]	776.88	51.99%	93.67%
C=C(CC(=O)O)C(=O)O [Itaconic acid]	640.97	60.39%	108.80%
CCC(C)n1ncn(-c2ccc(N3CCN(c4ccc(OCC5COC(Cn6cncn6)(c6ccc(Cl)cc6Cl)O5)cc4)CC3)cc2)c1=O (stereo not drawn) [Itraconazole]	450.47	72.16%	130.02%
O=C1C=CC(=O)c2c(O)cccc21 [Juglone]	894.51	44.72%	80.57%
CC(C)C(=O)C(=O)O [Ketoisovaleric acid]	921.08	43.08%	77.61%
CC[C@H](N)C(=O)O [L(+)-2-Aminobutyric acid]	981.68	39.33%	70.87%
CC(=O)O[C@H](CC(=O)O)C[N+](C)(C)C.[Cl-] [L-Acetylcarnitine (hydrochloride)]	581.20	64.08%	115.46%
CC(C)=CCC[C@@H](C)[C@H]1CC[C@@]2(C)C3=C(CC[C@]12C)[C@@]1(C)CC[C@H](O)C(C)(C)[C@@H]1CC3 [Lanosterol]	957.65	40.82%	73.54%
CS(=O)(=O)CCNCc1ccc(-c2ccc3ncnc(Nc4ccc(OCc5cccc(F)c5)c(Cl)c4)c3c2)o1 [Lapatinib Ditosylate]	578.14	64.27%	115.80%
N[C@@H](Cc1cc(I)c(Oc2cc(I)c(O)c(I)c2)c(I)c1)C(=O)O [Levothyroxine sodium]	974.14	39.80%	71.71%
CC(=O)CCC(=O)O [Levulinic acid]	771.58	52.32%	94.26%

Structure (SMILES)	Mean Luminescence	% Activity over baseline	% Activity relative to Rapamycin
COc1cc2c(cc1OC)[C@@H](Cc1ccc(O)c(Oc3cc4c(cc3OC)CCN(C)[C@@H]4Cc3ccc(O)cc3)c1)N(C)CC2 [Liensinine]	923.21	42.94%	77.38%
CC1(C)O[C@H]2CC(=O)OC[C@]23[C@H]2CC[C@@]4(C)[C@H](c5ccoc5)OC(=O)[C@H]5O[C@]54[C@]2(C)C(=O)C[C@@H]13 [Limonin]	753.03	53.46%	96.33%
CCOC(=O)O[C@]1(C(=O)OCCl)CC[C@H]2[C@@H]3CCC4=CC(=O)C=C[C@]4(C)[C@H]3[C@@H](O)C[C@@]21C [Loteprednol etabonate]	214.82	86.72%	156.26%
C=CCc1ccc(O)c(-c2cc(CC=C)ccc2O)c1 [Magnolol]	950.75	41.24%	74.31%
O=C(O)CC(O)C(=O)O (stereo not drawn) [Malic acid]	962.28	40.53%	73.03%
O=C(O)CC(=O)O [Malonic acid]	865.42	46.52%	83.81%
CCOC(=O)c1c(C)n(C)c2ccc(O)cc12 [Mecarbinate]	799.96	50.56%	91.10%
CC(=O)O[C@]1(C(C)=O)CC[C@H]2[C@@H]3C[C@H](C)C4=CC(=O)CC[C@]4(C)[C@H]3CC[C@@]21C [Medroxyprogesterone acetate]	800.04	50.56%	91.09%
Nc1nc(N)nc(N)n1 [Melamine]	960.76	40.62%	73.19%
OC[C@H]1O[C@H](OCC2O[C@@H](O)[C@H](O)[C@@H](O)[C@@H]2O)[C@H](O)[C@@H](O)[C@H]1O (stereo partly drawn) [Melibiose]	715.78	55.76%	100.47%
CN1CCN2c3ccccc3Cc3ccccc3C2C1 (stereo not drawn) [Mianserin HCl]	960.23	40.66%	73.25%
Clc1ccc(COC(Cn2ccnc2)c2ccc(Cl)cc2Cl)c(Cl)c1 (stereo not drawn) [Miconazole Nitrate]	704.35	56.47%	101.75%
Clc1ccc(COC(Cn2ccnc2)c2ccc(Cl)cc2Cl)c(Cl)c1 (stereo not drawn) [Miconazole]	297.40	81.62%	147.06%
CO[C@@]12[C@H](COC(N)=O)C3=C(C(=O)C(C)=C(N)C3=O)N1C[C@@H]1N[C@@H]12 [Mitomycin C]	867.02	46.42%	83.63%
COC(=O)c1c2c(c3ccccc3c1O)OC(C)(C)C=C2 [Mollugin]	709.65	56.14%	101.16%
CO/N=C1\C[C@]2(C[C@@H]3C[C@@H](C/C=C(\C)C[C@@H](C)/C=C/C=C4\CO[C@@H]5[C@H](O)C(C)=C[C@@H](C(=O)O3)[C@]45O)O2)O[C@H](/C(C)=C/C(C)C)[C@H]1C [Moxidectin]	476.19	70.57%	127.15%
C[C@@H]1CCCCCCCCCCCCC(=O)C1 [Muscone]	869.43	46.27%	83.36%
